Data reported in article PMC7377474, “Preclinical characterization of CPL302-253, a selective inhibitor of PI3Kδ, as the candidate for the inhalatory treatment and prevention of Asthma” (PLoS ONE, 2020).
Where “and” joins values, the source holds several entries; their conditions need not be identical. Equal values may be shown once. Read-outs that look alike come from different tables or passages of the source.

Legend:
neutrophils = assay: Neutrophils IL-8 production; assay type: cell-based, human; conditions: 6 h, 1 μM
Procedure: Neutrophils were isolated using EasySep Direct Human Neutrophil Isolation Kit (StemCell Technologies) from fresh whole blood of healthy donors by magnetic bead isolation according to manufacturer’s protocol. The cells were cultured in AIM V medium (Gibco). After 30 min pre-treatment with CPL302-253 (1 μM) neutrophils were stimulated with Cigarette Smoke Extract (CSE) (Murty Laboratories) at 100 μg/ml or LPS from E. coli O55:B5 (Sigma-Aldrich) at 1 μg/ml. After 6 h of incubation the culture supernatants were collected and IL-8 production was measured using IL-8 Human Uncoated ELISA Kit (Invitrogen) according to manufacturer’s protocol

PI3Kγ = PI3Kγ (Homo sapiens, UniProt P48736); assay: ADP-Glo Kinase Assay; assay type: biochemical; design: purchased Merck Millipore
Procedure: (§1) The potency and selectivity of CPL302-253 against different isotypes of class I PI3K were assessed using ADP-Glo Kinase Assay (Promega) according to manufacturer’s protocol. PI3Kα, PI3Kβ, PI3Kδ, PI3Kγ were purchased from Merck Millipore. The inhibition of examined kinases activity was evaluated by measuring their ability to converse ATP to ADP in the presence of decreasing doses of tested compound (from 400 μM to 0,00004 μM). Kinases were mixed with 1 mM PIP2:PS substrate (Phosphoinositol-4,5-bisphosphate (PIP2) lipid vesicles with phosphoserine (PS), Thermofisher Scientific) and 30 μM ATP in an assay buffer (50 mM HEPES pH 7.5,50 mM NaCl, 3 mM MgCl2, 25 μg/ml BSA). The mixture was incubated in the dark for 1 h at 25°C (PI3Kα and PI3Kδ) or at 30°C (PI3Kβ, PI3Kγ). Next ADP-Glo reagent 1 was added to stop the reaction and remove any remaining ATP. The samples were incubated for 40 min at 25°C. Subsequently the ADP-Glo reagent 2 was added and reactions were incubated for 40 min at 25°C. Finally, luminescence was assessed and the IC50 was calculated.

PI3Kβ = PI3Kβ (Homo sapiens, UniProt P42338); assay: ADP-Glo Kinase Assay; assay type: biochemical; design: purchased Merck Millipore
Procedure: as §1

PI3Kα = PI3Kα (Homo sapiens, UniProt P42336); assay: ADP-Glo Kinase Assay; assay type: biochemical; design: purchased Merck Millipore
Procedure: as §1

[1] = Procedure: Unless otherwise stated, all chemicals and materials were ordered from Merck Life Science. Each biological replicate was prepared in triplicates. […] The negative control contained buffer instead of NADPH solution. Samples were collected at 0, 10, 20 and 40 min or 0 and 40 min for the negative and double negative controls. The reaction was stopped by protein precipitation in 2 volumes of ice cold MeOH with 200 nM imipramine (as an internal standard for LC-MS analysis). Then, the extract was mixed (1 min, 1000 rpm), filtered through 0.22 μm filter on 96-well plate vacuum manifold and subjected to LC-MS analysis. Metabolic stability in mouse and human cryopreserved hepatocytes was performed in suspension on 96-well tissue culture plates at 1 μM concentration in Williams medium E with CM4000 supplements (ThermoFisher Scientific). Cells were thawed according to the manufacturers manual, counted and preincubated for 30 min in a CO2 incubator (5% CO2, 37 °C, 5 · 10^4 cells/well). For the negative control cells were thermally inactivated for 5 min at 95 °C. Similarly to microsomal stability, experiments were done in technical triplicates, with the additional time point at 80’. Samples for LC-MS analysis were prepared as described for microsomes. Intrinsic clearance (Clint) was calculated using the rate of compound disappearance from the reaction. The elimination rate constant (k) was calculated as a module of slope of the linear regression from ln [substrate] vs time. Then, clearance was calculated as Clint = k/d, where d is protein or cell density for microsomal and hepatocyte stability, respectively.
The mobile phases were (A) 10 mM ammonium acetate pH 5.4 in water and (B) methanol. Samples were eluted using a timed, linear gradient from 30% B at 0 min to 90% B at 1.5 min then a hold 90% B to 2.5 min, after it back to initial 30% B to 2.6 min. The columns was equilibrated for up to 5 min. The flow rate was 0.5 mL/min. The injection volume was 3 μL.

[2] = tested on: panel of 468 human kinases; assay: KINOMEScan broad panel; assay type: binding; conditions: 1 μM
Procedure: (§2) The inhibitor-kinase binding affinity was assessed in KINOMEscan™ assay (Discoverex) according to service provider’s protocol. In brief, in this binding assay the studied compound in solution is incubated with DNA-tagged kinase and kinase active-site directed ligand bound to the beads. The compound competes for binding to kinase with the immobilized ligand. After incubation beads are removed from the solution and kinase bound to ligand is quantified by qPCR. The strength of compound binding is determined based on its ability to block kinase-ligand binding. 11-point 3-fold serial dilution of CPL302-253 was used in order to determine its binding constants (Kd) against different isotypes of class I PI3K. The single concentration of CPL302-253 was used in order to determine its specificity in abroad panel of 468 human kinases. The measure of compounds affinity to each kinase in the panel was the percentage of kinase activity inhibition by tested ligand in comparison to the control.

[3] = tested on: HDM induced asthma mouse model; assay: HDM-steroid insensitive asthma mice model; conditions: for IL-33 concentration in BAL (Fig 7B), single animals / eosinophils number in BAL (Fig 7A), single animals: day 15
PIK3CA(E545K) = biological target: T1, PIK3CA(E545K) (Homo sapiens, UniProt P42336, E545K); assay: KINOMEScan single concentration; assay type: binding; conditions: 1 μM
T1 construct: purchased Discoverex (KINOMEscan service)
Procedure: as §2

PIK3CA(I800L) = biological target: T2, PIK3CA(I800L) (Homo sapiens, UniProt P42336, I800L); assay: KINOMEScan single concentration; assay type: binding; conditions: 1 μM
T2 construct: purchased Discoverex (KINOMEscan service)
Procedure: as §2

DAT = biological target: T3, DAT (Homo sapiens, UniProt Q01959); assay: SafetyScan44; assay type: cell-based; conditions: 10 μM; Blocker mode
T3 construct: purchased DiscoverX (Eurofins) SafetyScan44
Procedure: (§3) SafetyScan44 assay was performed by DiscoverX according to service provider’s protocol.

DRD2S = biological target: T4, DRD2S (Homo sapiens, UniProt P14416); assay: SafetyScan44; assay type: cell-based; conditions: 10 μM
T4 construct: purchased DiscoverX (Eurofins) SafetyScan44
Procedure: as §3

HRH1 = biological target: T5, HRH1 (Homo sapiens, UniProt P35367); assay: SafetyScan44; assay type: cell-based; conditions: 10 μM
T5 construct: purchased DiscoverX (Eurofins) SafetyScan44
Procedure: as §3

[4] = HDM + 0.5 mg/kg i.n., 0.5 mg/kg
[5] = i.n. on day 12, 13 and 14, HDM challenge day 14, BALF day 15

T4 sequence (P14416 1-414 isoform P14416-2): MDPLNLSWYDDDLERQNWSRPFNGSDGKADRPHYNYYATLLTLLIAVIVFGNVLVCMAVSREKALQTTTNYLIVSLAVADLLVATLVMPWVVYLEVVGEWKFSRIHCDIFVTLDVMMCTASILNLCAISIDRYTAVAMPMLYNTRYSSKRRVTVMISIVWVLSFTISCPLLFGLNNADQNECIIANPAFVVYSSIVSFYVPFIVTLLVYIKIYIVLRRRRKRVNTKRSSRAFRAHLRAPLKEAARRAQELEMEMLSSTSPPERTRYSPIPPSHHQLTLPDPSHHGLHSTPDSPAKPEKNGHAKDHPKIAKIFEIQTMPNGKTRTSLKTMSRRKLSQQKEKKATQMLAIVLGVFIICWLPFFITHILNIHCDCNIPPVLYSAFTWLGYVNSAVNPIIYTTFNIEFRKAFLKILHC
PI3Kβ, sequence (P42338 whole entry): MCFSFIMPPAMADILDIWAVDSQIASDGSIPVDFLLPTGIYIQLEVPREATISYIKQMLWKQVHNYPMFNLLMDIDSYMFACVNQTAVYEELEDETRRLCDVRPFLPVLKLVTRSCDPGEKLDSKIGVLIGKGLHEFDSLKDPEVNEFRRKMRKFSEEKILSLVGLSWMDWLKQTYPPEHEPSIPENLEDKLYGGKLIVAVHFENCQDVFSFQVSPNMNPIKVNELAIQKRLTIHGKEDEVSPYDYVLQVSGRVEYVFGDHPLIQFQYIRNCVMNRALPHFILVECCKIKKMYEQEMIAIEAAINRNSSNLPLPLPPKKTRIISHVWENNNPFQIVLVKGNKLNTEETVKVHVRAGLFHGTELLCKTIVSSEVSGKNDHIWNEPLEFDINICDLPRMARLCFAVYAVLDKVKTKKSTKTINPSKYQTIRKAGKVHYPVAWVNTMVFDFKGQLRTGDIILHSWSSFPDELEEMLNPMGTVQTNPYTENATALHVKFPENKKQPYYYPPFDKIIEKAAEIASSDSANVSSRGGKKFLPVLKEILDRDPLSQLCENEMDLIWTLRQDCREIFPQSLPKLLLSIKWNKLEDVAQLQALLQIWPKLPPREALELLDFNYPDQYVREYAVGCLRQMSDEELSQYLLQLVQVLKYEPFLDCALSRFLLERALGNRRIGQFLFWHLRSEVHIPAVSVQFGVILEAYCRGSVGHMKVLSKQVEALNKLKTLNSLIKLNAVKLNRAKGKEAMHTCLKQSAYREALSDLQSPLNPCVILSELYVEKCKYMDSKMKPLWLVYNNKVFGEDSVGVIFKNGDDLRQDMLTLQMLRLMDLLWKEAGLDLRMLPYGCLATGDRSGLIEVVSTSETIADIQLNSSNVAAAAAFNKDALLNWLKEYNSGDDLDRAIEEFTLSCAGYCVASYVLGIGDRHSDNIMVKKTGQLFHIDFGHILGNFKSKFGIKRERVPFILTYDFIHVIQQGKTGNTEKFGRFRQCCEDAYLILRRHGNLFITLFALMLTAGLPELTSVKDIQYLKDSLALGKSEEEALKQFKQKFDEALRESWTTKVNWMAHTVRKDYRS
PI3Kβ, sequence (P27986 whole entry partner): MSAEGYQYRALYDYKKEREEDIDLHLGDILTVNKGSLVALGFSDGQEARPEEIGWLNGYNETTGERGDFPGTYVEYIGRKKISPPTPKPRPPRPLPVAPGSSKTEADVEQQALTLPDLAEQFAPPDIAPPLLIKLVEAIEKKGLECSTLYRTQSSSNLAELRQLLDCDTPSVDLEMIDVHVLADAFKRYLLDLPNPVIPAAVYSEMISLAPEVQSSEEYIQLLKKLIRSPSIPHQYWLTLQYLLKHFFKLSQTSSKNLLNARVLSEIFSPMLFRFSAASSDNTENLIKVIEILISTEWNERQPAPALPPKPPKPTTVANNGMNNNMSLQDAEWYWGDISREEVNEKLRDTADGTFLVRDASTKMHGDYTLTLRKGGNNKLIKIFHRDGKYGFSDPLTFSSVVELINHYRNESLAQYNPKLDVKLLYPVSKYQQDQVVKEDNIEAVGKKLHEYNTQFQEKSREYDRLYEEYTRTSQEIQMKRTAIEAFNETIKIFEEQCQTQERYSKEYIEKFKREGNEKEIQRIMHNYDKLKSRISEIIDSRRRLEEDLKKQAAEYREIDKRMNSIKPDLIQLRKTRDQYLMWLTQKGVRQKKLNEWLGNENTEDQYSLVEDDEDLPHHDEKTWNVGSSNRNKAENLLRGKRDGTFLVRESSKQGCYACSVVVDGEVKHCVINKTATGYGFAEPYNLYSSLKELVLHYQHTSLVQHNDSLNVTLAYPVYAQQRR
PI3Kγ, sequence (P48736 whole entry): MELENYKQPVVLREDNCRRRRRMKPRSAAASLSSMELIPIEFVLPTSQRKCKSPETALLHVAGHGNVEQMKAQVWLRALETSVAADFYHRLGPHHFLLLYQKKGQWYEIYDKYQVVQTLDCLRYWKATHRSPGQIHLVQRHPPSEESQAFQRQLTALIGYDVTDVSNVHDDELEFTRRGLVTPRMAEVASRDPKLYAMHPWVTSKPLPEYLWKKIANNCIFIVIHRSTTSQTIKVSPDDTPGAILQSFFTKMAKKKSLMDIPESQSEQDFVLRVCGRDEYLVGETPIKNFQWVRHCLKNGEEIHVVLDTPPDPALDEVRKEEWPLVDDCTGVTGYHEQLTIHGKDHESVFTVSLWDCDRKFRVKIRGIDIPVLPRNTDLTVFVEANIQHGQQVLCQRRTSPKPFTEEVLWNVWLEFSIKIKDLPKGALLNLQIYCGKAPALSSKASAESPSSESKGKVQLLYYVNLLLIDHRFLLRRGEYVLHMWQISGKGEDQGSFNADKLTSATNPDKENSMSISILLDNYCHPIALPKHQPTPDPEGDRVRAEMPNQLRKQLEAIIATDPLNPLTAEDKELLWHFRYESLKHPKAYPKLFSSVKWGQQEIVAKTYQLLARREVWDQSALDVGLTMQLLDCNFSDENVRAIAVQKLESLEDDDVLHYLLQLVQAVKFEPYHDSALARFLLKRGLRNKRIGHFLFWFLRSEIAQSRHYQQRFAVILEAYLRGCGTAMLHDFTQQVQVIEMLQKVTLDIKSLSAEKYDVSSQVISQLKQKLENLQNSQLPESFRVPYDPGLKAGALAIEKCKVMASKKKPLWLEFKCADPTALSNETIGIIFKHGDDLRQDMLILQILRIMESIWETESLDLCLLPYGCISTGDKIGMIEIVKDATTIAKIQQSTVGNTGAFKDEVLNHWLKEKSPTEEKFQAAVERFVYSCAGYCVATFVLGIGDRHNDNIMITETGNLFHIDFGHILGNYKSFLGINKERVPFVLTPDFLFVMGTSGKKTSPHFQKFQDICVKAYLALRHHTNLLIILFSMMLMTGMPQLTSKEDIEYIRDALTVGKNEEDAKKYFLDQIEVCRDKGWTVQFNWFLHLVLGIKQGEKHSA
PI3Kα, sequence (P42336 whole entry): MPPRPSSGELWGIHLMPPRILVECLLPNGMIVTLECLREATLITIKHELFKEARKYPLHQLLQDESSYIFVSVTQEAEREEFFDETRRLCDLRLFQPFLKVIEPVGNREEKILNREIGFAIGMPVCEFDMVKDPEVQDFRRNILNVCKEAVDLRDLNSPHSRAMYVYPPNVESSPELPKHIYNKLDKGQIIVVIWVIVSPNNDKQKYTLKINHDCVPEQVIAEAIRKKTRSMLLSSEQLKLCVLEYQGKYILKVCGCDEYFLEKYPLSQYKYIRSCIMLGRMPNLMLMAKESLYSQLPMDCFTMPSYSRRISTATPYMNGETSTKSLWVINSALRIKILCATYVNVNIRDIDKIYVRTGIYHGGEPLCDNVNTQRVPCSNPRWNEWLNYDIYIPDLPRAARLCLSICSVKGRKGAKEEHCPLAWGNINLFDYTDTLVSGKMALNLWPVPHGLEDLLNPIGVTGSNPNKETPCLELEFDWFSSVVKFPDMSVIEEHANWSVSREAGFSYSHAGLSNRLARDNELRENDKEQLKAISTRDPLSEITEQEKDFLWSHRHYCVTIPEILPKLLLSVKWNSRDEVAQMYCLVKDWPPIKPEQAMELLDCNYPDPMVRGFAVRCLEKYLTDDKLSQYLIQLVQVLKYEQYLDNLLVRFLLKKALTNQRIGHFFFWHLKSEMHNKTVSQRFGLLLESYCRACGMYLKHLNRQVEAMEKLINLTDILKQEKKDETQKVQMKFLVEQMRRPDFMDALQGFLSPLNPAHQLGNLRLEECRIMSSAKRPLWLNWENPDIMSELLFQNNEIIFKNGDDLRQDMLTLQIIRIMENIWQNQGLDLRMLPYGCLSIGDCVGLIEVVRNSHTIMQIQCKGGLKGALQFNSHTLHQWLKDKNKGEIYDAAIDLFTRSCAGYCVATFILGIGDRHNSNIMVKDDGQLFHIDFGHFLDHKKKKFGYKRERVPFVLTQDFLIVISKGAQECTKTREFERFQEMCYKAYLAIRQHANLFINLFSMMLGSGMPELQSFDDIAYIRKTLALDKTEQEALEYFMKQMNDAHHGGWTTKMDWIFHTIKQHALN
PI3Kα, sequence (P27986 whole entry partner): as the sequence (P27986 whole entry partner) above
T5 sequence (P35367 whole entry): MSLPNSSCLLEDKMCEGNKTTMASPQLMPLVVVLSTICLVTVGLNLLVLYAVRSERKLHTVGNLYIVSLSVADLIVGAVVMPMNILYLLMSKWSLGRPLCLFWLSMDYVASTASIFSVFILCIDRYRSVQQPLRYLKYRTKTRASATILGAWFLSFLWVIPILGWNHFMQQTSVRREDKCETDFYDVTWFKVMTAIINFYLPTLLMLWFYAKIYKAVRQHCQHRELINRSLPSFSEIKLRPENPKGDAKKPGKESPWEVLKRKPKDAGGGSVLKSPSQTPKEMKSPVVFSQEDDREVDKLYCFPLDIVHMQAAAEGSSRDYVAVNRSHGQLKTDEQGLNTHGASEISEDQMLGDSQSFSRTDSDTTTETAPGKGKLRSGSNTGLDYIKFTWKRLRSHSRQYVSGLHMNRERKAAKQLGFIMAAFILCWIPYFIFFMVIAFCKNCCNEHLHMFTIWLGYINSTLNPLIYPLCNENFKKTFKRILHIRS
T2 sequence (P42336 whole entry I800L): as the sequence (P42336 whole entry) above, with I800L counted along it
T1 sequence (P42336 whole entry E545K): as the sequence (P42336 whole entry) above, with E545K counted along it

Which “IL-8 release (Fig 4B), single replicates” value (neutrophils; 1 μg/ml LPS) does the source give for `CC(C)(C)N1CCN(Cc2cc3nc(-c4cncc5[nH]ccc45)cc(N4CCOCC4)n3n2)CC1` [CPL302-253] here?
The value was 471 and 860 and 464.

What about the “IL-8 release (Fig 4A), single replicates” value (neutrophils; 100 μg/ml CSE) of the same compound?
Its value is 378 and 136 and 362.

What about the “IL-8 production by neutrophils” value (neutrophils; after CSE or LPS stimulation) of the same compound?
Its value is “reduced IL-8 production”.

And the IC50 (PI3Kγ)?
Its IC50 is 45.4 µM.

And the “Ratio to δ” value (PI3Kγ; IC50 of isoform γ to δ)?
The value was 3725.

And the IC50 (PI3Kβ)?
Its IC50 is 9.58 µM.

And the “Ratio to δ” value (PI3Kβ; IC50 of isoform β to δ)?
The value was 785.

What about the IC50 (PI3Kα) of the same compound?
Its IC50 is 4.52 µM.

What about the “Ratio to δ” value (PI3Kα; IC50 of isoform α to δ) of the same compound?
The value was 371.

What about the “degradation in human hepatocytes” value [1] of the same compound?
Its value is “degradation was not observed at all”.

And the “Clint, times lower when compared to verapamil” value ([1]; CD-1, mouse, 1 μM)?
Its value is ~30 times.

And the “Clint (Fig 5D), single replicates” value ([1]; human, 1 μM)?
The value was 0.

What about the “Clint, times lower when compared to verapamil” value ([1]; human, 1 μM) of the same compound?
The value was ~70 times.

What about the “degradation, fold slower as compared to verapamil” value ([1]; mouse, 1 μM) of the same compound?
Its value is 11 fold.

What about the “inhibition of binding to specific substrate, kinases other than members of PI3K” value [2] of the same compound?
Its value is ≤ 70%.

And the “IL-33 concentration in BAL (Fig 7B), single animals” value [3, 4]?
Its value is 1.6 and -0.3 and -1.1 and -0.8 and -4.4 and 3 and 4.4 and -0.4 and -4.7 and 1.7.

And the “eosinophils number in BAL (Fig 7A), single animals” value [3, 4]?
The value was 32736 and 8169.96 and 5712.6 and 6975 and 20671.5 and 48073 and 6811.27 and 9495.5 and 84434.2 and 46844.4.

And the “IL-33 concentration in BAL (Fig 7B), single animals” value ([3]; HDM + 5 mg/kg i.n., 5 mg/kg)?
Its value is 0.5 and 3 and -2.8 and 10.8 and 6.1 and 2.3 and 1 and 2.6 and 9.8.

What about the “eosinophils number in BAL (Fig 7A), single animals” value ([3]; HDM + 5 mg/kg i.n., 5 mg/kg) of the same compound?
Its value is 17665.4 and 6769.78 and 17936.5 and 52878.7 and 44238.8 and 8082.51 and 80102.2 and 24189.9 and 38935.1 and 17565.7.

And the “IL-33 production in the lungs” value [3, 5]?
The value was “effectively blocked”.

What about the “eosinophil influx to the lungs” value [3, 5] of the same compound?
The value was “effectively blocked”.

And the “Remaining binding (%)” value (PIK3CA(E545K))?
The value was 54%.

And the “Remaining binding (%)” value (PIK3CA(I800L))?
Its value is 44%.

And the “% Response DAT Blocker” value (DAT)?
Its value is 56.1%.

And the “% Response DRD2S Agonist” value (DRD2S; Agonist mode)?
Its value is -4.5%.

And the “% Response DRD2S Antagonist” value (DRD2S; Antagonist mode)?
The value was -1.1%.

And the “% Response HRH1 Agonist” value (HRH1; Agonist mode)?
The value was -0.2%.

What about the “% Response HRH1 Antagonist” value (HRH1; Antagonist mode) of the same compound?
The value was 7.2%.
